The results in this text go back to patent publication US7893055B2, “HIV integrase inhibitors” (priority 2006, dated 2011).

Data set [1] concerns the target T1, HIV-integrase (Human immunodeficiency virus type 1 group M subtype B, UniProt P12497).
T1 construct: Recombinant integrase (0.26 ng) was incubated with the beads
Put plainly: HIV-Integrase Inhibition Activity (SPA strand transfer assay). It counts as biochemical. The conditions noted are these: recombinant integrase, SPA beads, P33 labeled target DNA; read-out: Activity (IC50 class, HIV-integrase inhibition). The method in brief: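 Biotinylated substrate DNA (5 pmol) on streptavidin SPA beads was preloaded with 0.26 ng recombinant integrase for 90 min at 37 °C, then washed. Inhibitors and 0.1 fmol 33P-labelled target DNA were added; EDTA (10 mM final) stopped the reaction. Strand-transfer integration was read as bead-associated CPM; IC50 values are grouped into activity bands.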

For data set [2], the system named is recombinant NL-Rluc virus. Put plainly: Inhibition of HIV replication (NL-Rluc virus, luciferase). It counts as cell-based. The conditions noted are these: NL-Rluc pseudotype virus; serum condition of tabulated values not stated (10% FBS, 15 mg/ml HSA/10% FBS or 40% human serum/5% FBS); read-out: Activity (EC50 class, inhibition of HIV replication).

One may read the IC50 as the midpoint of a concentration-inhibition curve. The melting point is the temperature, or range, at which the solid turns liquid. In turn, `Cc1ncc(CNC(=O)c2nc3n(c(=O)c2O)CCOC3(C)C)s1` [Example 85, 3-Hydroxy-9,9-dimethyl-N-((2-methylthiazol-5-yl)methyl)-4-oxo-4,6,7,9-tetrahydropyrimido[2,1-c][1,4]oxazine-2-carboxamide] returned a melting point of 245 °C. Further, the half-maximal inhibitory concentration (IC50) in data set [1] was 2 to 100 nM. The EC50 is the midpoint of the concentration-response curve. Consider “Pyrimido[2,1-c][1,4]oxazine-2- carboxamide, 4,6,7,9-tetrahydro-3- hydroxy-9,9-dimethyl-N-[(1- methyl-1H-pyrazol-3-yl)methyl]-4- oxo- [Example 72]”, for which the IC50 in data set [1] lay within 2 to 100 nM. In data set [2], the EC50 was in the range of 100 to 1000 nM. On to “Pyrimido[2,1-c][1,4]oxazine-2- carboxamide, 4,6,7,9-tetrahydro-3- hydroxy-9,9-dimethyl-N-[(4- methyl-2-phenyl-5- thiazolyl)methyl]-4-oxo- [Example 74]”, for which the IC50 in data set [1] is ≥ 1000 nM. The same measure, in the same setting: to “Pyrimido[2,1-c][1,4]oxazine-2- carboxamide, 4,6,7,9-tetrahydro-3- hydroxy-9,9-dimethyl-N-[(5- methyl-2-phenyl-2H-1,2,3-triazol- 4-yl)methy]-4-oxo- [Example 49]” belongs ≥ 1000 nM; to “Pyrimido[2,1-c][1,4]oxazine-2- carboxamide, 4,6,7,9-tetrahydro-3- hydroxy-9,9-dimethyl-N-[(5- methyl-3-phenyl-4- isoxazolyl)methy]-4-oxo- [Example 43]”, ≥ 1000 nM. On to “Pyrimido[2,1-c][1,4]oxazine-2- carboxamide, 4,6,7,9-tetrahydro-3- hydroxy-9,9-dimethyl-N-[[5- methyl-2-(trifluoromethyl)-3- furanyl]methy]-4-oxo- [Example 42]”, for which the IC50 in data set [1] was in the range of 2 to 100 nM. Moreover, in data set [2], the EC50 was in the range of 100 to 1000 nM. As for “Pyrimido[2,1-c][1,4]oxazine-2- carboxamide, 4,6,7,9-tetrahydro-3- hydroxy-N-[2-(1H-indol-3- yl)ethyl]-9,9-dimethyl-4-oxo- [Example 57]”, the IC50 in data set [1] lay within 100 to 1000 nM. On the same count and under the same terms, to “Pyrimido[2,1-c][1,4]oxazine-2- carboxamide, 4,6,7,9-tetrahydro-3- hydroxy-N-[2-(5-hydroxy-1H- indol-3-yl)ethyl]-9,9-dimethyl-4- oxo- [Example 51]” belongs ≥ 1000 nM; to “Pyrimido[2,1-c][1,4]oxazine-2- carboxamide, 4,6,7,9-tetrahydro-3- hydroxy-N-[3-(5-methoxy-1H- indol-3-yl)propyl]-9,9-dimethyl-4- oxo- [Example 52]”, ≥ 1000 nM; to “Pyrimido[2,1-c][1,4]oxazine-2- carboxamide, 4,6,7,9-tetrahydro-3- hydroxy-N-[[3-(4-methoxyphenyl)- 5-isoxazolyl]methyl]-9,9-dimethyl- 4-oxo- [Example 48]”, ≥ 1000 nM. Turning to “Pyrimido[2,1-c][1,4]oxazine-2- carboxamide, N-(1,2-benzisoxazol- 3-ylmethyl)-4,6,7,9-tetrahydro-3- hydroxy-9,9-dimethyl-4-oxo- [Example 59]”, the IC50 in data set [1] was in the range of 2 to 100 nM. In data set [2], the 50% effective concentration (EC50) is 100 to 1000 nM. “Pyrimido[2,1-c][1,4]oxazine-2- carboxamide, N-(2- benzofuranylmethyl)-4,6,7,9- tetrahydro-3-hydroxy-9,9- dimethyl-4-oxo- [Example 56]”: in data set [1], the half-maximal inhibitory concentration (IC50) fell in the range of 2 to 100 nM. For the same compound, the concentration giving a half-maximal response (EC50) in data set [2] lay in the range of 3 to 100 nM. On the same counts, the results for “Pyrimido[2,1-c][1,4]oxazine-2- carboxamide, N-(benzo[b]thien-3- ylmethyl)-4,6,7,9-tetrahydro-3- hydroxy-9,9-dimethyl-4-oxo- [Example 40]” are 2 to 100 nM and 100 to 1000 nM.

Regarding “Pyrimido[2,1-c][1,4]oxazine-2- carboxamide, N-[(1,3-dimethyl- 1H-pyrazol-4-yl)methyl]-4,6,7,9- tetrahydro-3-hydroxy-9,9- dimethyl-4-oxo- [Example 61]”, the IC50 in data set [1] lay in the range of 100 to 1000 nM. As to “Pyrimido[2,1-c][1,4]oxazine-2- carboxamide, N-[(1,3-diphenyl- 1H-pyrazol-4-yl)methyl]-4,6,7,9- tetrahydro-3-hydroxy-9,9- dimethyl-4-oxo- [Example 66]”, in data set [1], the IC50 is 100 to 1000 nM. As for “Pyrimido[2,1-c][1,4]oxazine-2- carboxamide, N-[(1-ethyl-1H- pyrazol-3-yl)methyl]-4,6,7,9- tetrahydro-3-hydroxy-9,9- dimethyl-4-oxo- [Example 67]”, the IC50 in data set [1] lay within 2 to 100 nM. The EC50 in data set [2] lay within 100 to 1000 nM. With “Pyrimido[2,1-c][1,4]oxazine-2- carboxamide, N-[(1-ethyl-1H- pyrazol-5-yl)methyl]-4,6,7,9- tetrahydro-3-hydroxy-9,9- dimethyl-4-oxo- [Example 68]”, the IC50 in data set [1] is ≥ 1000 nM. On the same count and under the same terms, to “Pyrimido[2,1-c][1,4]oxazine-2- carboxamide, N-[(1-ethyl-3- methyl-1H-pyrazol-4-yl)methyl]- 4,6,7,9-tetrahydro-3-hydroxy-9,9- dimethyl-4-oxo- [Example 63]” belongs 100 to 1000 nM; to “Pyrimido[2,1-c][1,4]oxazine-2- carboxamide, N-[(1-ethyl-3- methyl-1H-pyrazol-5-yl)methyl]- 4,6,7,9-tetrahydro-3-hydroxy-9,9- dimethyl-4-oxo- [Example 46]”, 100 to 1000 nM; to “Pyrimido[2,1-c][1,4]oxazine-2- carboxamide, N-[(1-ethyl-5- methyl-1H-pyrazol-4-yl)methyl]- 4,6,7,9-tetrahydro-3-hydroxy-9,9- dimethyl-4-oxo- [Example 64]”, 100 to 1000 nM. For the compound “Pyrimido[2,1-c][1,4]oxazine-2- carboxamide, N-[(2,5-dimethyl-3- furanyl)methyl]-4,6,7,9- tetrahydro-3-hydroxy-9,9- dimethyl-4-oxo- [Example 44]”, the IC50 in data set [1] lay within 2 to 100 nM. Also, in data set [2], the EC50 was 3 to 100 nM. Consider “Pyrimido[2,1-c][1,4]oxazine-2- carboxamide, N-[(2-bromo-3- thienyl)methy]-4,6,7,9-tetrahydro- 3-hydroxy-9,9-dimethyl-4-oxo- [Example 41]”, for which the half-maximal inhibitory concentration (IC50) in data set [1] was in the range of 2 to 100 nM. In data set [2], the EC50 is 100 to 1000 nM. Regarding “Pyrimido[2,1-c][1,4]oxazine-2- carboxamide, N-[(4-bromo-1- ethyl-1H-pyrazol-5-yl)methyl]- 4,6,7,9-tetrahydro-3-hydroxy-9,9- dimethyl-4-oxo- [Example 73]”, the IC50 in data set [1] was ≥ 1000 nM. Turning to “Pyrimido[2,1-c][1,4]oxazine-2- carboxamide, N-[(4-chloro-1- ethyl-1H-pyrazol-3-yl)methyl]- 4,6,7,9-tetrahydro-3-hydroxy-9,9- dimethyl-4-oxo- [Example 70]”, in data set [1], the IC50 was in the range of 2 to 100 nM. In data set [2], the EC50 is > 1000 nM. As for “Pyrimido[2,1-c][1,4]oxazine-2- carboxamide, N-[(4-chloro-1- ethyl-1H-pyrazol-5-yl)methyl]- 4,6,7,9-tetrahydro-3-hydroxy-9,9- dimethyl-4-oxo- [Example 71]”, in data set [1], the IC50 was in the range of 100 to 1000 nM.

For “Pyrimido[2,1-c][1,4]oxazine-2- carboxamide, N-[(4-chloro-3- methyl-5-isoxazolyl)methyl]- 4,6,7,9-tetrahydro-3-hydroxy-9,9- dimethyl-4-oxo- [Example 54]”, the IC50 in data set [1] was 100 to 1000 nM. As to “Pyrimido[2,1-c][1,4]oxazine-2- carboxamide, N-[(5,6-dichloro- 1H-benzimidazol-2-yl)methyl]- 4,6,7,9-tetrahydro-3-hydroxy-9,9- dimethyl-4-oxo- [Example 50]”, in data set [1], the IC50 is ≥ 1000 nM.

In the case of “Pyrimido[2,1-c][1,4]oxazine-2- carboxamide, N-[(5-chloro-1H- indol-2-yl)methyl]-4,6,7,9- tetrahydro-3-hydroxy-9,9- dimethyl-4-oxo- [Example 62]”, in data set [1], the IC50 was in the range of 100 to 1000 nM.

As for “Pyrimido[2,1-c][1,4]oxazine-2- carboxamide, N-[[3-(4- chlorophenyl)-5- isoxazolyl]methyl]-4,6,7,9- tetrahydro-3-hydroxy-9,9- dimethyl-4-oxo- [Example 45]”, in data set [1], the IC50 was ≥ 1000 nM.
